Measured values published in patent US7034050B2, “Pseudopeptides growth hormone secretagogues” (priority 2004, dated 2006).

What was measured:
[1] = target: T1, human pituitary gland tissues (Homo sapiens, UniProt Q92847); experiment: binding affinity to human pituitary gland tissues; details: compared with ghrelin, hexarelin, MK 0677 and JMV 1843
T1 construct: from tissue; host or cells: human pituitary gland tissue

GH release [2] = experiment: stimulation of GH release in vitro; format: cell-based
[3] = tested on: rat epididynial adipocytes; experiment: binding affinity to rat epididynial adipocytes; details: compared with rat ghrelin, MK 0677 and hexarelin
GH release [4] = experiment: GH release in vivo (neonatal rats injected subcutaneously); set-up: species or system rat

T1 sequence (Q92847 whole entry): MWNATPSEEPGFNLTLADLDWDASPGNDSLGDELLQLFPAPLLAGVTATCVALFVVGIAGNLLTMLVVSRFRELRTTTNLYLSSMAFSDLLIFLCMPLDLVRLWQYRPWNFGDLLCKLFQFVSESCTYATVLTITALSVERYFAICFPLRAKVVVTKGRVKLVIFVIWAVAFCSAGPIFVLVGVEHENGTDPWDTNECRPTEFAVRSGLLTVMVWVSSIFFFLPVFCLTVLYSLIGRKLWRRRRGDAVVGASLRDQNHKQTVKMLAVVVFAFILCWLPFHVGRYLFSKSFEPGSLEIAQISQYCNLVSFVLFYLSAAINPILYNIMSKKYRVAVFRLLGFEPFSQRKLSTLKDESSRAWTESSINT

Substance | binding affinity to human pituitary gland tissues [1] | potency in stimulating the GH release in vitro (GH release [2]) | binding affinity to rat epididynial adipocytes [3] | potency in stimulating the GH release in vivo (GH release [4]) | amount of growth hormone released (GH release [4]; neonatal rats, subcutaneous injection, compared with MK 0677 and hexarelin)
Aib-D-Trp-D-Trpψ[CH2—NH—O]Gly-NH2 [IIa] | comparable to that of the natural ligand ghrelin and superior to the binding affinity of the synthetic GH secretagogues | remarkably potent | comparable to that of rat ghrelin and superior to that of MK 0677 and hexarelin | remarkably potent | exceeded the amount released when the standard GH secretagogues MK 0677 and hexarelin were administered
Aib-D-Trp-D-Trpψ[CH═N˜O]Gly-NH2 [Ia] | comparable to that of the natural ligand ghrelin and superior to the binding affinity of the synthetic GH secretagogues | remarkably potent | comparable to that of rat ghrelin and superior to that of MK 0677 and hexarelin | remarkably potent | 
